Measured values taken from publication PMC5776677 (Journal of medicinal chemistry, 2016).
Where a name gives a salt, the structure may show the parent alone.

Experiments:
HIV-1 [1] = experiment: Anti-HIV-1 activity in HIV-infected PBMCs; settings: for TI (CC50/EC50), HIV-1: HIV-1, PBMCs
HBV = experiment: Anti-HBV activity in HepG2; type: cell-based
Aqueous solubility = type: physicochemical
HIV-1 [2] = settings: read-out: EC50 against HIV-1; cited from earlier work
[3] = Cytotoxicity in uninfected PBMCs; type: cell-based; settings: human
[4] = type: physicochemical

| Compound | TI (CC50/EC50), HIV-1 (HIV-1 [1]) | TI (CC50/EC50), HBV (HBV) | also measured |
| --- | --- | --- | --- |
| 6-(Dodecyldisulfanyl)hexyl Hydrogen ((((R)-1-(6-Amino-9H-purin-9-yl)propan-2-yl)oxy)methyl)phosphonate [5b] | >7000 | >47 | – |
| CCCCCCCCCCCCCCCCSSCCOP(=O)(O)CO[C@H](C)Cn1cnc2c(N)ncnc21 [1b, 2-(hexadecyldisulfanyl)ethyl hydrogen ((((R)-1-(6-amino-9H-purin-9-yl)propan-2-yl)oxy)methyl)phosphonate] | – | > 1200 | aqueous solubility (Aqueous solubility): poor aqueous solubility |
| CCCCCCCCCCCCCCCCSSCCCCOP(=O)(O)CO[C@H](C)Cn1cnc2c(N)ncnc21 [2b, (R)-4-(hexadecyldisulfanyl)butyl (((1-(6-amino-9H-purin-9-yl)propan-2-yl)oxy)methyl)phosphonate] | >100000 | >200 | aqueous solubility (Aqueous solubility): poor aqueous solubility |
| CCCCCCCCCCCCCCCCSSCc1ccccc1COP(=O)(O)CO[C@H](C)Cn1cnc2c(N)ncnc21 [4b, (R)-2-((hexadecyldisulfanyl)methyl)benzyl (((1-(6-amino-9H-purin-9-yl)propan-2-yl)oxy)methyl)phosphonate] | >31800 | – | – |
| CCCCCCCCCCCCCCCCOCCCOP(=O)(O)CO[C@H](C)Cn1cnc2c(N)ncnc21 [CMX-157, Hexadecyloxypropyl-9-R-[2-(Phosphonomethoxy)-Propyl]-Adenine] | – | – | EC50 (HIV-1 [2]): 0.02 µM |
| CC(C)OC(=O)OCOP(=O)(CO[C@H](C)Cn1cnc2c(N)ncnc21)OCOC(=O)OC(C)C [TDF, tenofovir disoproxil fumarate] | – | – | CC50 [3]: 44 µM |
| C[C@H](Cn1cnc2c(N)ncnc21)OCP(=O)(O)O [TFV, tenofovir, reference compound] | >300 | – | – |
| C[C@H](Cn1cnc2c(N)ncnc21)OCP(=O)(O)OCCS [compound 6, 2-mercaptoethyl hydrogen ((((R)-1-(6-amino-9H-purin-9-yl)propan-2-yl)oxy)methyl)phosphonate] | >5.38 | >2 | fold less active than TFV against HIV-infected PBMCs (HIV-1 [1]; relative to TFV): 58 fold; stability in glycine/HCl buffer ([4]; pH 2.0, 0.1 M DTT, 37.4 °C): no observed decomposition; stability in PBS ([4]; pH 7.43, TFV appears as new signal): Moderate stability; decomposition in aqueous carbonate/bicarbonate buffer ([4]; pH 9.19, 0.1 M DTT, 37.4 °C): significant decomposition; time to complete consumption of starting material ([4]; pH 10.16): ≤ 8 min |
| C[C@H](Cn1cnc2c(N)ncnc21)OCP(=O)(O)OCCCCS [compound 7, 4-mercaptobutyl hydrogen ((((R)-1-(6-amino-9H-purin-9-yl)propan-2-yl)oxy)methyl)phosphonate] | – | > 1 | stability in various aqueous buffers ([4]; all tested pH values, several hours at 37 °C): no detectable decomposition |
